Holding throughout (assay): DTP human tumour cell line panel, 48 h
Assay [1] deals with ACHN renal.
The test system of assay [2] is CCRF-CEM leukemia.
Assay [3] deals with HOP-62 NSCLC.
The subject of assay [4] is MDA-MB-435.
Assay [5] relates to MOLT-4 leukemia.
Assay [6] deals with NCI-H460 lung.
The test system of assay [7] is OVCAR-3 ovarian.
For assay [8], the system named is OVCAR-5 ovarian.
In assay [9] the test system is PC-3 prostate.
Assay [10] relates to SNB-75 CNS.

Where “and” joins values, the source holds several entries; their conditions need not be identical. Equal values may be shown once.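 Interpolation was linear, between the two tested concentrations surrounding the appropriate level; five concentrations were tested over 48 hours in 96-well plates. GI50: concentration for 50% inhibition of growth. TGI: concentration producing complete growth inhibition.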

The term GI50 denotes the concentration that inhibits growth by half. As a reminder, the TGI is the concentration giving total growth inhibition. For `CCN(CC)CCCC(C)Nc1ccnc2cc(Cl)ccc12` (stereo not given), the GI50 is above 100 µM in assay [1]; 38.8 µM in [2]; above 100 µM in [3]; 20.3 µM in assay [4]; 62.9 µM in [5]; 66.6 µM in [6]. Also, the GI50 is 22.3 µM in assay [7], 98.4 µM in [9] and above 100 µM in assay [10]. In addition, the TGI was above 100 µM in assay [1]; above 100 µM in assay [2]; above 100 µM in assay [3]; 43.3 µM and 37.3 µM in assay [4]; > 100 µM and 50 µM in assay [5]; above 100 µM in assay [6]. In addition, the TGI in assay [7] is 75.6 µM and > 100 µM; in [8] it was above 100 µM; in assay [9], above 100 µM; in [10] it was above 100 µM.

On to `Cc1c(-c2ccc(C3CCCCC3)cc2)nc2ccc(F)cc2c1C(=O)O`, for which the GI50 in [1] is 0.33 µM; in assay [2] it was 0.0858 µM; in assay [4], 0.322 µM; in [5], 0.0679 µM; in [6] it was 0.0461 µM; in assay [7] it was 0.475 µM. Moreover, the GI50 in assay [8] was above 100 µM; in assay [9] it was 0.0797 µM; in assay [10] it was 12.2 µM. For the same compound, the TGI in assay [1], in assay [2], in assay [3], in assay [4], in assay [5] and in [6] was above 100 µM throughout. Moreover, the TGI in assay [7], in assay [8], in assay [9] and in assay [10] was above 100 µM in each case.

Regarding `CC1=C2CC(C)(C)/C=C\C(=O)/C(C)=C\C3=C[C@H](C)C[C@]3(O2)C1=O`, the TGI in assay [1] stood at 2.9 µM; in assay [2], 0.661 µM; in assay [3], 15.9 µM; in assay [4], 1.66 µM; in assay [5], 1.53 µM; in assay [6], 14 µM. Besides, the TGI in assay [7] worked out at 1.15 µM; in assay [8], 3.37 µM; in [9] it was 7.09 µM; in assay [10] it was 12.2 µM.

Regarding `COc1cc(C2CC(c3cccc(Nc4ccnc5cc(Cl)ccc45)c3)=NN2c2ccc(Cl)cc2)cc(OC)c1OC` (stereo not given), the GI50 is 1.48 µM in assay [1]; 4.84 µM in assay [2]; 1.39 µM in [3]; 0.804 µM in [4]; 3.68 µM in assay [5]; 0.772 µM in assay [6]. Besides, the GI50 in assay [7] is 3.72 µM; in [8] it was 13.2 µM; in assay [9], 0.819 µM; in [10] it was 2.22 µM. For the same compound, the TGI in assay [1] was above 100 µM; in assay [2], above 100 µM; in assay [3] it was 22.7 µM; in assay [4], 6.58 µM; in [5] it was above 100 µM; in assay [6], above 100 µM. Also, the TGI in assay [7], in assay [8], in assay [9] and in [10] was above 100 µM throughout.

Regarding `O=C(O)[C@H](Cc1c[nH]c2ccccc12)N1C(=O)c2ccccc2C1=O`, the TGI in assay [1], in assay [2], in assay [3], in [4], in assay [5] and in assay [6] was above 100 µM each time. Besides, the TGI in assay [7], in assay [8], in [9] and in [10] was above 100 µM in each case. Further, the GI50 in assay [2] and in assay [5] was above 100 µM in each case.

For `NC(N)=NCC1CCCCCCN1` (stereo not given), the TGI in [1], in [2], in assay [3], in [4], in assay [5] and in assay [6] was above 100 µM throughout. For the same compound, the TGI in [7], in [8], in assay [9] and in [10] was above 100 µM each time.

Take `COc1ccc([N+](=O)[O-])c2c(NCCCN(C)C)ccnc12`: the TGI is 14.5 µM in assay [1]; 61.9 µM in assay [2]; 15.6 µM in assay [3]; 23.1 µM in assay [4]; 8.12 µM in assay [5]; 5.63 µM in assay [6]. Moreover, the TGI turned out to be 6.78 µM in assay [7], 42.4 µM in [8], 30.8 µM in assay [9] and 15.8 µM in assay [10].

Consider `CCCCCCCCCCCCCCCCCc1nccn1CCOCCO`, for which the GI50 in assay [1] is 5.95 µg/mL; in assay [2] it was 5.18 µg/mL; in [3], 5.37 µg/mL; in assay [4] it was 5.85 µg/mL; in [5], 5.5 µg/mL; in [6], 5.66 µg/mL. In addition, the GI50 is 4.74 µg/mL in assay [7], 5.86 µg/mL in assay [8], 4.9 µg/mL in assay [9] and 4.88 µg/mL in [10]. Further, the TGI in assay [1] was found to be 11.1 µg/mL; in assay [2], 12.4 µg/mL; in assay [3], 10.8 µg/mL; in assay [4], 11.7 µg/mL; in [5] it was 12.3 µg/mL; in [6], 11.9 µg/mL. The TGI was determined as 9.64 µg/mL in assay [7], 11.2 µg/mL in [8], 10.7 µg/mL in assay [9] and 9.7 µg/mL in assay [10].

With `O=C1/C=C/[C@@H](O)[C@@H]2C[C@@H](O)C[C@H]2/C=C/CCC[C@H](CCc2cccc3ccccc23)O1`, the GI50 in assay [1] was 0.305 µM; in [2], 0.136 µM; in [3] it was 0.0713 µM; in assay [4] it was 0.0394 µM; in assay [5], 0.105 µM; in assay [6] it was 0.274 µM. For the same compound, the GI50 in assay [7] is 0.0395 µM; in assay [8], 0.103 µM; in assay [9], 0.065 µM; in assay [10], 0.0358 µM. Besides, the TGI came to 12.5 µM in assay [1]; 8.02 µM in [2]; 11.8 µM in assay [3]; 3.43 µM in [4]; 2.61 µM in assay [5]; 12.2 µM in assay [6]. Further, the TGI in assay [7] came out at 1.83 µM; in assay [8] it was 13.9 µM; in assay [9], 12 µM; in assay [10] it was 14.5 µM.

As to `CO[C@H]1C=CO[C@@]2(C)Oc3c(C)c(O)c4c(O)c(c(CN5CCN(C)CC5)c(O)c4c3C2=O)NC(=O)/C(C)=C\C=C[C@H](C)[C@H](O)C(C)[C@@H](O)C(C)[C@H](OC(C)=O)[C@@H]1C` (stereo not given in full), the TGI in assay [1] is above 100 µM; in assay [2], 22.3 µM; in assay [3] it was above 100 µM; in assay [4], above 60.8 µM; in assay [5], 49.1 µM; in [6] it was above 100 µM. Besides, the TGI was 14.4 µM in assay [7], above 100 µM in assay [8], above 100 µM in assay [9] and above 100 µM in assay [10].

For the compound `CC1=CC(C)=NN=C(N)N1S(=O)(=O)c1cc(C)c(Cl)cc1SCc1ccccc1`, the GI50 in assay [1] is 24.4 µM; in [2] it was 9.15 µM; in assay [3] it was 72.4 µM; in assay [4] it was 21.3 µM; in [5], 6.18 µM; in [6] it was 9.22 µM. For the same compound, the GI50 was 22.6 µM in assay [7], above 100 µM in [8], 6.15 µM in assay [9] and 23.5 µM in assay [10]. Moreover, the total growth inhibition concentration (TGI) in assay [1], in assay [2], in assay [3], in assay [4], in assay [5] and in assay [6] was above 100 µM each time. For the same compound, the TGI in [7], in assay [8], in assay [9] and in assay [10] was above 100 µM in each case.

The record behind these values is PubChem BioAssay (NCI).
